Test results from paper PMC3359661, “FK228 Analogues Induce Fetal Hemoglobin in Human Erythroid Progenitors” (Anemia, 2012).

What was measured:
[1] = system: HbF levels in primary erythroid cells; test: HbF ELISA in primary erythroid cells; type: cell-based, human; settings: for Fold change in HbF levels: relative to untreated = 1, concentrations as in E7; for Fetal hemoglobin quantification, Mean (HbF/total Hb/total protein): treated Day 11, harvested Day 14, conc: Cys 10 mM, Hemin 50 μM, SAHA 2000 nM, FK228 1.5 nM, JMA1 1.5 nM, JMA2 1.0 nM, JMA26 500 nM, JMA33 1000 nM, untreated 0.683
Method: (§1) The two-phase liquid culture system was established as previously published by Fibach et al. using buffy coat mononuclear cells, purchased from Carter Blood Care (Fort Worth, TX) in accordance with the guidelines of the Institutional Review Board at the University of Texas at Dallas. During phase 1, cells were grown in IMDM medium with 30% fetal bovine serum and 50 ng/mL each of the granulocyte-monocyte colony-stimulating factor, Interleukin-3, and stem cell factor. Subsequently, phase 2 was initiated on day 7 with the addition of erythropoietin (2 U/mL) and stem cell factor (50 ng/mL). The cells were treated on Day 11 with the different test compounds and harvested on Day 14 (72 hr incubation).
Total hemoglobin was quantified using 20 μL of protein extract from one million KU812 cells mixed with 5 mL of Drabkin's reagent (Sigma); then cyanmethemoglobin was measured at the 540 nm wavelength. HbF levels were quantified using the human Hemoglobin F ELISA Quantitation Kit (Bethyl Laboratory, Montgomery, TX). Briefly, 96-well plates were coated with sheep anti-human HbF antibody (1 mg/mL). After blocking with 1% bovine serum albumin, horse radish peroxidase-conjugated secondary antibody (1 mg/mL) was added. Raw data were analyzed using GraphPad PRISM (GraphPad Software, Inc., La Jolla, CA) and HbF levels were calculated as a ratio of total hemoglobin corrected for total protein (HbF/total Hb/total protein).

[2] = system: γ-globin gene transcription in KU812 cells; test: RT-qPCR of γ/β-globin mRNA in wild type KU812 cells; type: cell-based, human; settings: 48 hr, Hem 50 μM, NaB 2 mM, SAHA 2 μM, FK228 1.5 nM, Cys 10 mM, untreated normalized to one, range over the drugs
Method: Human KU812 leukemia cells were grown in Iscove's Modified Dulbecco's medium (IMDM) (Invitrogen, Carlsbad, CA) with 10% fetal bovine serum (Atlanta Biologicals, Atlanta, GA), penicillin (100 U/mL), and streptomycin (0.1 mg/mL). The cells were incubated at 37°C with 5% CO2. Cell count and viability were determined using a hemocytometer and 2% Trypan blue exclusion. Inductions were performed with one million cells treated for 48 hr with the following drugs purchased from Sigma (St Louis, MO): 50 μM Hem (hemin), 2 mM NaB (sodium buytrate), 0.5 μM TSA, 10 mM Cys (cysteine), 1.5 nM FK228, and 100 μM HU (hydroxyurea). […] Inc. (Whitehouse Station, NJ).
Total RNA was isolated from samples using RNA Stat-60 (TEL-TEST “B” Inc., Friendswood, TX) and used for RT-qPCR analysis as previously published. […] The globin mRNA levels were calculated as a ratio of GAPDH (γ/GAPDH, β/GAPDH), and the γ/β-globin mRNA ratio was calculated by dividing γ/GAPDH by β/GAPDH. […]
Figure 2 Known HbF inducers activate γ-globin expression in KU812 cells. […] Cells were treated for 48 hr with the different drug inducers and γ-globin and β-globin gene transcription were measured by RT-qPCR (see Section 2). […] Data were calculated as the means ± standard error of the mean (SEM); *P < 0.05 and **P < 0.01. […]

[3] = system: γ-globin promoter activity in KU812-γF/βR stable lines; test: KU812 dual-luciferase reporter stable lines (μLCRβprRluc AγprFluc), γ-globin promoter activity; type: cell-based, human; settings: 48 hr; for Fold change (γ/γ + 2β): untreated normalized to one
Source text: KU812 stable cell lines were created by co-transfecting wild-type KU812 cells with pEGFP-NI (G418 selectable marker) and theμLCRβ prRluc ^A γ prFluc dual-reporter a kind gifts from Dr. George Stamatoyannopoulos (University of Washington). […] Likewise, 1.4 kb of human Aγ-globin promoter was inserted upstream of firefly luciferase to create ^A γ prFluc. The μLCR (locus control region), Pβ prRluc, and ^A γ prFluc fragments were subsequently cloned into the mammalian vector, pRL-null.
After 72 hr, G418 was added at a concentration of […] for 3 days then maintained under selection pressure indefinitely at a concentration of […]. KU812 stable lines were treated with the various drugs at the same concentrations described above. FK228 and analogues were screened at concentrations between 1–1000 nM for 48 hr and cell toxicity was monitored by 2% Trypan blue exclusion. The effect of drug treatments on γ-globin and β-globin promoter activity was monitored by luciferase assay.
Luciferase activity was monitored under the different experimental conditions using the Dual Luciferase Assay Reporter System (Promega, Madison, WI). The activity of firefly luciferase represents γ-globin promoter activity (γF), while the renilla luciferase is the read-out for β-globin promoter activity (βR). The β-globin promoter was strategically cloned between the LCR and γ-globin promoter to increase β expression, while simultaneously increasing the sensitivity of detection of γ-globin gene inducers.
After drug treatments, KU812 stable cells were washed with 1X phosphate buffered saline and lysed in 1X Passive Lysis Buffer for 15 min, then protein extracts were added to the Luciferase Assay Reagent II and firefly luciferase activity quantified in a Turner Designs TD-20/20 luminometer (Sunnyvale, CA). To measure βR activity, Stop & Glo Reagents was added to measure the renilla luciferase activity. Total protein was determined by Bradford assay on a Beckman DU 640 spectrophotometer (Chaska, MN) and luciferase activity was corrected for total protein.
Subsequently, three independent dual-luciferase reporter KU812 stable cell lines were established to analyze the ability FK228 analogues to induce γ-globin promoter activity without an effect on β-globin transcription. […] Since the firefly luciferase gene (γF) has approximately […] luminescence than the renilla gene (βR), the renilla activity was multiplied by two to adjust for the difference in luminescence yielding the γ/γ+2β final measurement. The FK228 analogues were examined at concentrations ranging from 1–1000 nM in the three stable lines. After 48-hour treatments, cells were harvested and protein isolated for luciferase activity using the Dual Luciferase Reporter Assay.

[4] = system: HbF-positive primary erythroid progenitors; test: Anti-HbF FITC immunostaining of primary erythroid progenitors; type: cell-based, human; settings: anti-HbF FITC / DAPI, 500 cells counted; 15.5% HbF-positive at baseline in untreated cells
Method: as §1
Primary erythroid progenitor cytospin cell preparations were fixed with 4% paraformaldehyde in phosphate buffered saline for 15 min, washed, and then permeabilized with 0.3% Trition-100 solution for 10 min. Cells were then blocked in a 5% bovine serum albumin solution and immunostaining performed at 4°C overnight with anti-HbF fluorescein isothiocyanate (FITC) conjugated antibody (Bethyl Laboratories Inc., TX). Cell nuclei were stained with mounting medium containing 4′,6-diamidino-2-phenylindole (DAPI; Santa Cruz Biotechnology, CA). Primary cells were photographed with an Olympus BX 51 phase contrast epifluorescent microscope equipped with Hoffman Modulation optics. Phase-contrast images were recorded with a CCD camera (1/100 sec exposure) and fluorescence images were photographed through 485/520 nm emission filter. The percent of HbF positive cells was calculated by dividing the number of FITC positive cells by total cells (DAPI positive).
(§2) Figure 3 JMA33 and JMA26 induce HbF in primary erythroid cells. (a) Day 11 erythroid progenitors were treated for 48 hr with the controls agents and the FK228 analogues shown and then analyzed by RT-qPCR. Untreated cells (UT) were used as a control and normalized to one. Data were calculated as the means ± SEM. […] The images generated were used to count 500 DAPI positive cells and the %FITC positive cells were calculated accordingly.

[5] = system: γ-globin transcription in primary erythroid progenitors; test: RT-qPCR of γ-globin mRNA in primary erythroid progenitors (two-phase liquid culture); type: cell-based, human; settings: Day 11 erythroid progenitors treated 48 hr (Figure 3 legend), untreated normalized to one
Method: as §1
Total RNA was isolated from samples using RNA Stat-60 (TEL-TEST “B” Inc., Friendswood, TX) and used for RT-qPCR analysis as previously published. […] The globin mRNA levels were calculated as a ratio of GAPDH (γ/GAPDH, β/GAPDH), and the γ/β-globin mRNA ratio was calculated by dividing γ/GAPDH by β/GAPDH.
as §2, with “Untreated cells (UT) were used as a control and normalized to one.” left out

[6] = system: HDAC activity in HeLa cells; test: HDAC Fluorescent Activity Assay (Fluor de Lys) in HeLa cells; type: cell-based, human; settings: TSA 0.5 to 1000 nM; HeLa cells, Fluor de Lys substrate, fluorescence 440 nm
Method: The HDAC Fluorescent Activity Assay (Enzo Life Science, Farmingdale, NY) was used to measure HDAC inhibition in HeLa cells in a 96-well format using Trichostatin A as the positive control per the manufacturer's protocol. This assay is based on the Fluor de Lys (Fluorogenic Histone Deacetylase Lysyl (FDL)) Substrate/Developer. The procedure was as follows: the test compounds FK228, JMA26, and JMA33 were added to HeLa cells along with the FDL substrate to allow intracellular drug activation then fluorescence levels were read on the fluorometer at 440 nm (CytoFluor II, PerSeptive Biosystems, Farmingdale, NY). The drug concentrations tested were based on the amount required for HbF induction in primary cells. Data was reported as the mean ± standard deviation (SD) for at least five replicates.
To ascertain the mechanism of HbF induction by the lead compounds, we performed an in vivo assay to investigate the ability of JMA26 and JMA33 to act as HDAC inhibitors. The HDAC Fluorescent Activity Assay designed to measure HDAC activity in HeLa cells was completed in a 96-well format. The assay is based on the fact that the Fluor de Lys substrate is deacetylated by HDACs to generate a fluorescent readout. TSA (0.5 to 1000 nM) was used to establish the assay in HeLa cells, showing about 80% HDAC inhibition in our system (Figure 4(a)).
Figure 4 HDAC inhibition assay. The HDAC Fluorescent Activity Assay was used to measure HDAC inhibition in HeLa cells (See Section 2). Compounds and FDL substrate were added to HeLa cells to allow drug activation in vivo then fluorescence levels were quantified on the fluorometer at 440 nm. (a) Trichostatin A (TSA) was used as the control. (b) Inhibition studies were conducted for FK228 showing maximal HDAC inhibition at the 300 nM concentration. (c) Similar studies were performed for JMA33 and JMA26. The data are reported as the means ± SEM.

sickle-cell patients = settings: sickle cell patients treated with hydroxyurea; cited from earlier work
Source text: Several classes of pharmacological compounds that reactivate γ-globin gene transcription have been identified. They include cytotoxic agents, DNA methyl transferase, and histone deacetylase (HDAC) inhibitors. Cytotoxic compounds terminate actively cycling progenitors and perturb cellular growth to trigger rapid erythroid regeneration and γ-globin gene activation. S-stage cytotoxic drugs, such as cytosine arabinoside, myleran, vinblastine, and hydroxyurea, induce HbF production in primates and humans. The Multicenter Study of Hydroxyurea established ...

[7] = Line 1, firefly (γ) / renilla (β) luciferase corrected for total protein, mean, conc: Cys 10 mM, Hemin 50 μM, SAHA 2000 nM, FK228 1.5 nM, 1127Ox 1000 nM, JMA1 1.5 nM, JMA2 1.0 nM, JMA12 1000 nM, JMA26 500 nM, JMA33 1000 nM, JMA112 100 nM, untreated 0.0402
[8] = Line 1, concentrations as in E1
[9] = Line 2, concentrations as in E1, untreated 0.1573
[10] = Line 2, concentrations as in E1
[11] = Line 3, concentrations as in E1, untreated 0.0721
[12] = Line 3, concentrations as in E1

Row | Compound | Fold change in HbF levels [1] [fold] | Fetal hemoglobin quantification, Mean (HbF/total Hb/total protein) [1] | increase in the γ/β-globin mRNA levels [2] | γ/γ + 2β Mean [3, 7] | Fold change (γ/γ + 2β) [3, 8] | γ/γ + 2β Mean [3, 9] | Fold change (γ/γ + 2β) [3, 10] | γ/γ + 2β Mean [3, 11] | Fold change (γ/γ + 2β) [3, 12] | increase in HbF-positive cells [4] [fold] | induction of γ-globin transcription at the mRNA level [5] [fold] | HDAC inhibition [6] | non-response rate (sickle-cell patients) [%]
1 | N[C@@H](CS)C(=O)O [Cys, cysteine] | 1.079 | 0.737 | not induced | 0.0388 | 0.950 | 0.1200 | 0.764 | 0.0860 | 1.194 | – | – | – | –
2 | O=C(CCCCCCC(=O)Nc1ccccc1)NO [SAHA, suberoylanilide hydroxamic acid] | 1.602 | 1.094 | – | 0.2157 | 5.400 | 0.6500 | 4.140 | 0.2520 | 3.500 | 3.2 | ≤ 3.2 | – | –
3 | CC(/C=C/C(=O)NO)=C\[C@@H](C)C(=O)c1ccc(N(C)C)cc1 [TSA, Trichostatin A] | – | – | – | – | – | – | – | – | – | – | – | about 80% | –
4 | NC(=O)NO [hydroxyurea] | – | – | – | – | – | – | – | – | – | – | – | – | 30
5 | hemin | 2.218 | 1.515 | – | 0.1732 | 4.325 | 0.6593 | 4.261 | 0.2508 | 3.486 | 3.0 | – | – | –
